US10052320B2, “Substituted quinoxalines as FGFR kinase inhibitors” (ASTEX THERAPEUTICS LIMITED, priority 2011, dated 2018)

Tests used:
Assay type in all cases: cell-based
[1] = target: Ba/F3-FGFR3-transfected cells (Homo sapiens, UniProt P22607); test: Ba/F3-FGFR3 (minus IL3) cellular proliferation assay, Alamar Blue; details: for BAF3-FGFR 3 (MIN IL3) 384 well pIC50: minus IL3, 384 well
In short: (§1)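 Cells are seeded with compound dilutions, incubated 24 h at 37 °C under 5% CO2, then given resazurin-based Alamar Blue for a further 4 h before fluorescence is measured. The plus-IL3 counterscreen repeats this with 10 ng/ml murine IL3.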

[2] = target: Ba/F3-KDR-transfected cells (Homo sapiens, UniProt P35968); test: Ba/F3-KDR (minus IL3) cellular proliferation assay, Alamar Blue; details: minus IL3
Chain of Ba/F3-KDR-transfected cells (P35968 whole entry, change not shown): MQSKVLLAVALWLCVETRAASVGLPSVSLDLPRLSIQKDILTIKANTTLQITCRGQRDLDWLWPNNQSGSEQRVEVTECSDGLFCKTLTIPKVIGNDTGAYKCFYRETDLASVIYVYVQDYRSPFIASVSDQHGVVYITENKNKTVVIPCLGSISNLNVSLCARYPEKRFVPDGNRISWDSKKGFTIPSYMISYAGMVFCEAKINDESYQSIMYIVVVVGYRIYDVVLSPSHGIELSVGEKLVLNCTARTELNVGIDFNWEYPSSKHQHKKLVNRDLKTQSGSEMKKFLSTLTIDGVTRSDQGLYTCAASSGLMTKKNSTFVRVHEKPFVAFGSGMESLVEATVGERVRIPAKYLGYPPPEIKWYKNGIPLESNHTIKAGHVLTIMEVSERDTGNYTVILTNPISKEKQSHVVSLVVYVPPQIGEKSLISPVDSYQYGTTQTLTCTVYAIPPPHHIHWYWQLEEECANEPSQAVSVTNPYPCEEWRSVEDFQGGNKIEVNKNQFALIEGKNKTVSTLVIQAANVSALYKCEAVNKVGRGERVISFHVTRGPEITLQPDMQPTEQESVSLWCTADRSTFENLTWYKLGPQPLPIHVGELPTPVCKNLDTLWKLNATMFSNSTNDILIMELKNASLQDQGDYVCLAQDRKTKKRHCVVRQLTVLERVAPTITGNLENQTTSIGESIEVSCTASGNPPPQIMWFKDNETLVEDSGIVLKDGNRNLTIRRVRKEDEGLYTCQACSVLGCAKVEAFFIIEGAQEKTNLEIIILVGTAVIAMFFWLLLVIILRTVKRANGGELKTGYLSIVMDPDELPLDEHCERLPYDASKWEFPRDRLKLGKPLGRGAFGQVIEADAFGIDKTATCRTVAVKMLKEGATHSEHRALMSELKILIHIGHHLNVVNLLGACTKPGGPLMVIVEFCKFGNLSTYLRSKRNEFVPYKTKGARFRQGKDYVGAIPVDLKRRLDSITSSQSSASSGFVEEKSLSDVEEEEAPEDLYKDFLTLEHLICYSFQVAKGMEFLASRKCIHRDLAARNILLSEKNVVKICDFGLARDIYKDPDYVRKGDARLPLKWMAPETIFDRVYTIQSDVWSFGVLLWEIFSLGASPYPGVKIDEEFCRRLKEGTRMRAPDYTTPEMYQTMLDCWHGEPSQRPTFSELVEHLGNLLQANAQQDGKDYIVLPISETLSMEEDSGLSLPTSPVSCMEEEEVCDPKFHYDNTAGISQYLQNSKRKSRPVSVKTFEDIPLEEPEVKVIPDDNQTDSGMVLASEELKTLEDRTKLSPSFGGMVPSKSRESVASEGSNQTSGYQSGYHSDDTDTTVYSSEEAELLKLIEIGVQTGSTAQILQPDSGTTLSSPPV
In short: (§2)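 Compound in DMSO was combined with Ba/F3-KDR-transfected cells in RPMI-1640, 10% FBS, 2 mM L-glutamine. After 24 h incubation at 37 °C, Alamar Blue was added for a further 4 h, then relative fluorescence units were measured.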

[3] = tested on: Ba/F3-FGFR3-transfected cells in the presence of 10 ng/ml murine IL3; test: Ba/F3-FGFR3 (plus IL3) cellular proliferation counterscreen, Alamar Blue; details: plus 10 ng/ml murine IL3, 384 well; for IC50: Mus musculus, read-out: BAF3-FGFR 3 (PLUS IL3) 384 well pIC50 (converted)
In short: as §1

[4] = tested on: Ba/F3-KDR-transfected cells in the presence of 10 ng/ml murine IL3; test: Ba/F3-KDR (plus IL3) cellular proliferation counterscreen, Alamar Blue; details: plus 10 ng/ml murine IL3; for IC50: Mus musculus, read-out: BAF3-KDR (PLUS IL3) 384 well pIC50 (converted)
In short: as §2

[5] = tested on: Ba/F3-Flt3-transfected cells in the presence of 10 ng/ml murine IL3; test: Ba/F3-Flt3 (plus IL3) cellular proliferation counterscreen, Alamar Blue; details: Mus musculus; plus 10 ng/ml murine IL3; read-out: BAF3-FLT3 (PLUS IL3) 96 well pIC50 (converted)

Chain of Ba/F3-FGFR3-transfected cells (P22607 whole entry, change not shown): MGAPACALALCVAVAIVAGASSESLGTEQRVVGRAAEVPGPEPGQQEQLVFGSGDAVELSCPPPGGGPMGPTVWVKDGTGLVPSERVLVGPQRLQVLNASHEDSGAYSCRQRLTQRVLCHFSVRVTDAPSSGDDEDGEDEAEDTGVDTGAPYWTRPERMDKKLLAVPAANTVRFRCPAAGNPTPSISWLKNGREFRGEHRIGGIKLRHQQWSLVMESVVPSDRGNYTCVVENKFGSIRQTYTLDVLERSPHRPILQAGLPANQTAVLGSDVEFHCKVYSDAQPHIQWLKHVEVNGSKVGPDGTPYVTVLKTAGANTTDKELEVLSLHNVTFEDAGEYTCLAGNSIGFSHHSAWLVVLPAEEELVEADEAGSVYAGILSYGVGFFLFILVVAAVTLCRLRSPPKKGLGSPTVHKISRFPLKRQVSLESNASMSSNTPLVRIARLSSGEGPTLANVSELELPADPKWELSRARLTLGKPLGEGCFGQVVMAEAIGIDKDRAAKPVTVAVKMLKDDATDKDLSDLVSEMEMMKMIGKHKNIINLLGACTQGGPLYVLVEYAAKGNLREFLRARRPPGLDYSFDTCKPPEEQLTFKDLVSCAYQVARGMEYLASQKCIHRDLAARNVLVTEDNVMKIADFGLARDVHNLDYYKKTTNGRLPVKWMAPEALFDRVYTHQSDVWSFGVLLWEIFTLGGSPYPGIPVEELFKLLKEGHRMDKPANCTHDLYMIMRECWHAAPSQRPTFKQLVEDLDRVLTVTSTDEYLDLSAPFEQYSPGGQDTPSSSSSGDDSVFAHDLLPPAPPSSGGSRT

| SMILES | BAF3-FGFR 3 (MIN IL3) 384 well pIC50 [1] | BAF3-KDR (MIN IL3) 384 well pIC50 [2] | IC50 [3] | IC50 [4] | BAF3-FGFR 3 (PLUS IL3) 384 well pIC50 [3] | BAF3-KDR (PLUS IL3) 384 well pIC50 [4] | BAF3-FGFR 3 (MIN IL3) 96 well pIC50 ([1]; minus IL3, 96 well) | IC50 [5] |
| --- | --- | --- | --- | --- | --- | --- | --- | --- |
| COc1cc(OC)cc(N(CC2CC2)c2ccc3ncc(-n4cnc(CO)c4)nc3c2)c1 [Compound 105] | 5.53 | <5 | – | – | – | – | – | – |
| COc1cc(OC)cc(N(CCNC(C)C)c2ccc3ncc(-c4ccccc4)nc3c2)c1 [Compound 121] | 6.42 | ~5.3 | – | – | – | – | – | – |
| COc1cc(OC)cc(N(CC2CC2)c2ccc3ncc(-c4ocnc4C)nc3c2)c1 [Compound 104] | <5 | <5 | > 10 µM | > 10 µM | – | – | – | – |
| CNC(=O)c1cc(-c2cnc3ccc(N(CCNCC(F)(F)F)c4cc(OC)cc(OC)c4)cc3n2)ccn1 [Compound 113] | ~5.63 | <5 | – | – | – | – | – | – |
| COCCCN(c1cc(OC)cc(OC)c1)c1ccc2ncc(-c3ccn(C)c3)nc2c1 [Compound 3] | 6.62 | 5.07 | > 10 µM | > 10 µM | – | – | – | – |
| CNC(=O)c1cc(-c2cnc3ccc(N(CCNC(C)C)c4cc(OC)cc(OC)c4)cc3n2)ccn1 [Compound 14] | 7.03 | 5.35 | – | – | – | – | – | – |
| CNC(=O)c1cc(-c2cnc3ccc(N(CCCNCC(F)(F)F)c4cc(OC)cc(OC)c4)cc3n2)ccn1 [Compound 122] | 5.49 | <5 | – | – | – | – | – | – |
| COc1cc(OC)cc(N(CCO)c2ccc3ncc(-c4ccc(OC)nc4)nc3c2)c1 [Compound 111] | ~6.17 | <5 | > 10 µM | > 10 µM | – | – | – | – |
| COc1cc(OC)cc(N(CCCNCC(F)(F)F)c2ccc3ncc(-c4ccc(N(C)C(=O)OC(C)(C)C)nc4)nc3c2)c1 [Compound 127] | <5 | <5 | > 10 µM | > 10 µM | – | – | – | – |
| COc1cc(OC)cc(N(CC(O)C(F)(F)F)c2ccc3ncc(-c4cccnc4)nc3c2)c1 (single isomer, unassigned) [Compound 53] | – | <5 | – | – | – | – | – | – |
| COc1cc(OC)cc(N(CCO)c2ccc3ncc(-c4ccnc(C(=O)NCCCN)c4)nc3c2)c1 [Compound 123] | 5.57 | <5 | > 10 µM | > 10 µM | – | – | – | – |
| COc1cc(OC)cc(N(CCNC(C)C)c2ccc3ncc(-c4cccnc4)nc3c2)c1 [Compound 10] | 7.53 | 5.56 | – | – | – | – | – | – |
| COc1cc(OC)cc(N(CCCO)c2ccc3ncc(-c4ccc(C)nc4)nc3c2)c1 [Compound 115] | 6.29 | 5.06 | – | – | – | – | – | – |
| COc1cc(OC)cc(N(CCCO)c2ccc3ncc(-c4ccnc(C(=O)NCCCCN)c4)nc3c2)c1 [Compound 126] | 5.51 | <5 | – | – | – | – | – | – |
| CNC(=O)c1cc(-c2cnc3ccc(N(CCN4CCCC4CO)c4cc(OC)cc(OC)c4)cc3n2)ccn1 (stereo not shown) [Compound 109] | ~6.77 | – | – | – | – | – | – | – |
| COc1cc(OC)cc(N(CCCO)c2ccc3ncc(-c4cccnc4)nc3c2)c1 [Compound 112] | ~6.39 | <5 | > 10 µM | > 10 µM | – | – | – | – |
| COc1cc(OC)cc(N(CCCO)c2ccc3ncc(-c4ccc(N5CCOCC5)nc4)nc3c2)c1 [Compound 124] | ~6.64 | 5.11 | > 10 µM | > 10 µM | – | – | – | – |
| COc1cc(OC)cc(N(CC(O)CO)c2ccc3ncc(-c4ccc(N)nc4)nc3c2)c1 (stereo not shown) [Compound 74] | 6.69 | <5 | > 10 µM | > 10 µM | – | – | – | – |
| CNC(=O)OCCN(c1cc(OC)cc(OC)c1)c1ccc2ncc(-c3ccc(NC(=O)OC(C)(C)C)nc3)nc2c1 [Compound 80] | 5.09 | <5 | – | – | – | – | – | – |
| COc1cc(OC)cc(N(CCNC(C)C)c2ccc3ncc(-c4ccc(N)nc4)nc3c2)c1 [Compound 17] | ~7.09 | 5.82 | – | – | – | – | – | – |
| COc1cc(OC)cc(N(CCCO)c2ccc3ncc(-c4ccc(N5CCNCC5)nc4)nc3c2)c1 [Compound 48] | 6.87 | 5.39 | 5.5 µM | 5.25 µM | – | – | – | – |

| SMILES | BAF3-FGFR 3 (MIN IL3) 384 well pIC50 [1] | BAF3-KDR (MIN IL3) 384 well pIC50 [2] | IC50 [3] | IC50 [4] | BAF3-FGFR 3 (PLUS IL3) 384 well pIC50 [3] | BAF3-KDR (PLUS IL3) 384 well pIC50 [4] | BAF3-FGFR 3 (MIN IL3) 96 well pIC50 ([1]; minus IL3, 96 well) | IC50 [5] |
| --- | --- | --- | --- | --- | --- | --- | --- | --- |
| COCCN(c1cc(OC)cc(OC)c1)c1ccc2ncc(-c3ccn(C)c3)nc2c1 [Compound 6] | ~6.27 | 5.18 | > 10 µM | > 10 µM | – | – | – | – |
| COc1cc(OC)cc(N(CCCO)c2ccc3ncc(-c4ccnc(C(=O)NCCCN)c4)nc3c2)c1 [Compound 33] | 5.51 | <5 | – | – | – | – | – | – |
| COc1cc(OC)cc(N(CCO)c2ccc3ncc(-c4ccncc4)nc3c2)c1 [Compound 11] | 6.65 | 5.1 | > 10 µM | > 10 µM | – | – | – | – |
| CNc1ccc(-c2cnc3ccc(N(CCCO)c4cc(OC)cc(OC)c4)cc3n2)cn1 [Compound 116] | 6.59 | 5.19 | > 10 µM | > 10 µM | – | – | – | – |
| COc1cc(OC)cc(N(CCO)c2ccc3ncc(-c4ccc(N)nc4)nc3c2)c1 [Compound 106] | ~6.54 | 5.335 | – | – | – | – | – | – |
| COc1cc(OC)cc(N(CCCO)c2ccc3ncc(-c4ccc(F)nc4)nc3c2)c1 [Compound 117] | 6.25 | <5 | > 10 µM | > 10 µM | – | – | – | – |
| COc1cc(OC)cc(N(CCO)c2ccc3ncc(-c4ccccc4)nc3c2)c1 [Compound 120] | ~6.09 | <5 | – | – | – | – | – | – |
| COc1cc(OC)cc(N(CC2CO2)c2ccc3ncc(-c4ccc(N)nc4)nc3c2)c1 (stereo not shown) [Compound 110] | 6.81 | 5.45 | – | – | – | – | – | – |
| COc1cc(OC)cc(N(CC(OC(C)=O)C(F)(F)F)c2ccc3ncc(-c4cccnc4)nc3c2)c1 (single isomer, unassigned) [Compound 75] | – | <5 | – | – | <5 | <5 | – | – |
| COc1cc(OC)cc(N(CC2CC2)c2ccc3ncc(-c4cnnn4C)nc3c2)c1 [Compound 72] | <5 | – | – | – | – | – | <5 | > 10 µM |
| COc1cc(OC)cc(N(CCCO)c2ccc3ncc(-c4ccnc(N)c4)nc3c2)c1 [Compound 66] | ~7.05 | 5.52 | – | – | – | – | – | – |
| CNC(=O)c1cc(-c2cnc3ccc(N(CCN4CCCC4=O)c4cc(OC)cc(OC)c4)cc3n2)ccn1 [Compound 25] | 5.13 | <5 | – | – | – | – | – | – |
| COc1cc(OC)cc(N(Cc2cccc(CN)n2)c2ccc3ncc(-c4ccc(N)nc4)nc3c2)c1 [Compound 51] | ~5.77 | 5.04 | ~8.13 µM | > 10 µM | – | – | – | – |
| COc1cc(OC)cc(N(CC(O)C(F)(F)F)c2ccc3ncc(-c4cccnc4)nc3c2)c1 (single isomer, unassigned) [Compound 54] | – | <5 | – | – | <5 | <5 | – | – |
| COc1cc(OC)cc(N(CCCO)c2ccc3ncc(-c4ccnc(NC(=O)OC(C)(C)C)c4)nc3c2)c1 [Compound 128] | <5 | <5 | > 10 µM | > 10 µM | – | – | – | – |
| COc1cc(OC)cc(N(CCNC(C)C)c2ccc3ncc(-c4ccn(C)c4)nc3c2)c1 [Compound 8] | ~7.69 | 6.19 | – | – | – | – | – | – |
| COc1cc(OC)cc(N(CCO)c2ccc3ncc(-c4cccnc4)nc3c2)c1 [Compound 9] | 6.59 | 5.12 | > 10 µM | > 10 µM | – | – | – | – |
| COc1cc(OC)cc(N(CCNC(C)C)c2ccc3ncc(-c4ccncc4)nc3c2)c1 [Compound 12] | ~7.03 | 5.53 | > 10 µM | > 10 µM | – | – | – | – |
| CNCCN(c1cc(OC)cc(OC)c1)c1ccc2ncc(-c3ccc(NC(=O)OC(C)(C)C)nc3)nc2c1 [Compound 81] | 5.91 | 5.62 | – | – | – | – | – | – |
| COc1cc(OC)cc(N(CCCO)c2ccc3ncc(-c4ccc(N(C)C(=O)OC(C)(C)C)nc4)nc3c2)c1 [Compound 125] | ~6.04 | <5 | – | – | – | – | – | – |
| COc1cc(OC)cc(N(CC(OC(C)=O)C(F)(F)F)c2ccc3ncc(-c4cccnc4)nc3c2)c1 (single isomer, unassigned) [Compound 45] | – | <5 | – | – | – | – | – | – |
